Assay: xn = mol fraction of the nth substance listed

C1CCOC1 + Cc1ccccc1
303.15 K, 101.33 kPa
Settings | viscosity [mPa·s]
x1 = 0.1014 | 0.52
x1 = 0.1984 | 0.518
x1 = 0.3066 | 0.512
x1 = 0.3662 | 0.51
x1 = 0.4984 | 0.499
x1 = 0.5997 | 0.489
x1 = 0.702 | 0.479
x1 = 0.7981 | 0.467
x1 = 0.8997 | 0.453

CC(C)=O + CCCCCCC
296 K, 101.3 kPa
Settings | viscosity [mPa·s]
x1 = 0.0795 | 0.385
x1 = 0.1252 | 0.377
x1 = 0.1699 | 0.37
x1 = 0.2532 | 0.362
x1 = 0.3008 | 0.358
x1 = 0.3956 | 0.351
x1 = 0.4536 | 0.347
x1 = 0.5061 | 0.342
x1 = 0.6193 | 0.333
x1 = 0.6981 | 0.328
x1 = 0.7504 | 0.321
x1 = 0.8116 | 0.316
x1 = 0.8666 | 0.314
x1 = 0.9144 | 0.309
x1 = 0.9678 | 0.311

C1CCOC1 + CC#N
viscosity [mPa·s], 101 kPa
Settings | x2 = 0.1633 | x2 = 0.3052 | x2 = 0.4295 | x2 = 0.5394 | x2 = 0.6372 | x2 = 0.7249 | x2 = 0.8039 | x2 = 0.8754 | x2 = 0.9405
298.15 K | 0.4419 | 0.4236 | 0.4075 | 0.3932 | 0.3808 | 0.3701 | 0.3611 | 0.3539 | 0.3481
308.15 K | 0.4066 | 0.3875 | 0.3701 | 0.355 | 0.3425 | 0.3321 | 0.3242 | 0.3184 | 0.3145
318.15 K | 0.3683 | 0.3497 | 0.334 | 0.3202 | 0.3089 | 0.3001 | 0.2938 | 0.2901 | 0.2879

CC(C)=O + CO
Settings | viscosity [mPa·s]
293.15 K, 101 kPa, x1 = 0.025 | 0.563
293.15 K, 101 kPa, x1 = 0.098 | 0.507
293.15 K, 101 kPa, x1 = 0.244 | 0.435
293.15 K, 101 kPa, x1 = 0.385 | 0.389
293.15 K, 101 kPa, x1 = 0.487 | 0.371
293.15 K, 101 kPa, x1 = 0.703 | 0.342
293.15 K, 101 kPa, x1 = 0.865 | 0.333
298.15 K, 101.33 kPa, x1 = 0.059 | 0.4921
298.15 K, 101.33 kPa, x1 = 0.1261 | 0.455
298.15 K, 101.33 kPa, x1 = 0.1889 | 0.4225
298.15 K, 101.33 kPa, x1 = 0.2564 | 0.3965
298.15 K, 101.33 kPa, x1 = 0.3691 | 0.367
298.15 K, 101.33 kPa, x1 = 0.4581 | 0.3458
298.15 K, 101.33 kPa, x1 = 0.558 | 0.3292
298.15 K, 101.33 kPa, x2 = 0.7146 | 0.3932
303.15 K, 101 kPa, x1 = 0.025 | 0.496
303.15 K, 101 kPa, x1 = 0.098 | 0.449
303.15 K, 101 kPa, x1 = 0.244 | 0.389
303.15 K, 101 kPa, x1 = 0.385 | 0.352
303.15 K, 101 kPa, x1 = 0.703 | 0.314
303.15 K, 101 kPa, x1 = 0.865 | 0.308
313.15 K, 101 kPa, x1 = 0.025 | 0.435
313.15 K, 101 kPa, x1 = 0.244 | 0.349
313.15 K, 101 kPa, x1 = 0.385 | 0.322
313.15 K, 101 kPa, x1 = 0.487 | 0.311
313.15 K, 101 kPa, x1 = 0.703 | 0.291
313.15 K, 101 kPa, x1 = 0.865 | 0.287
318.15 K, 101 kPa, x1 = 0.025 | 0.411
318.15 K, 101 kPa, x1 = 0.098 | 0.378
318.15 K, 101 kPa, x1 = 0.244 | 0.335
318.15 K, 101 kPa, x1 = 0.385 | 0.311
318.15 K, 101 kPa, x1 = 0.487 | 0.3
318.15 K, 101 kPa, x1 = 0.703 | 0.282
318.15 K, 101 kPa, x1 = 0.865 | 0.277
323.15 K, 101 kPa, x1 = 0.025 | 0.386
323.15 K, 101 kPa, x1 = 0.098 | 0.362
323.15 K, 101 kPa, x1 = 0.244 | 0.32

CC(C)=O + CCO
298.15 K, 101 kPa
Settings | viscosity [mPa·s]
x1 = 0.1868 | 0.7168
x1 = 0.2337 | 0.651
x1 = 0.3003 | 0.5795
x1 = 0.3162 | 0.5636
x1 = 0.378 | 0.5162
x1 = 0.3887 | 0.5028
x1 = 0.4579 | 0.462
x1 = 0.6529 | 0.3836

CC(=O)C(=O)[O-].[Na+] + O
viscosity [mPa·s], 101 kPa
Settings | x1 = 0.00036 | x1 = 0.000648 | x1 = 0.000936 | x1 = 0.00137 | x1 = 0.00151 | x1 = 0.0018
298.15 K | 0.8972 | 0.9038 | 0.9104 | 0.9173 | 0.9206 | 0.9267
303.15 K | 0.8044 | 0.811 | 0.8176 | 0.826 | 0.8308 | 0.8369
308.15 K | 0.7257 | 0.7308 | 0.7375 | 0.7474 | 0.7507 | 0.7569
313.15 K | 0.6602 | 0.6669 | 0.6735 | 0.682 | 0.6868 | 0.6931

CC(C)=O + CCCCO
Settings | viscosity [mPa·s]
298.15 K, 101 kPa, x1 = 0.12 | 1.65
298.15 K, 101 kPa, x1 = 0.24 | 1.164
298.15 K, 101 kPa, x1 = 0.35 | 0.8875
298.15 K, 101 kPa, x1 = 0.46 | 0.7108
298.15 K, 101 kPa, x1 = 0.56 | 0.5919
298.15 K, 101 kPa, x1 = 0.66 | 0.5089
298.15 K, 101 kPa, x1 = 0.75 | 0.4285
298.15 K, 101 kPa, x1 = 0.84 | 0.4014
298.15 K, 101 kPa, x1 = 0.92 | 0.3651
303.15 K, 101.33 kPa, x1 = 0.1152 | 1.535
303.15 K, 101.33 kPa, x1 = 0.2307 | 1.127
303.15 K, 101.33 kPa, x1 = 0.3341 | 0.879
303.15 K, 101.33 kPa, x1 = 0.4685 | 0.642
303.15 K, 101.33 kPa, x1 = 0.7032 | 0.427
303.15 K, 101.33 kPa, x1 = 0.7974 | 0.368

C1CCOC1 + CCCO
viscosity [mPa·s], 101 kPa
Settings | 298.15 K | 303 K | 313 K
x1 = 0.0992 | – | 1.22 | 1.04
x1 = 0.1999 | – | 1.08 | 0.9
x1 = 0.2846 | – | 1 | 0.85
x1 = 0.39 | – | 0.91 | 0.77
x1 = 0.5 | 0.7603 | – | –
x1 = 0.5146 | – | 0.8 | 0.69
x1 = 0.5918 | – | 0.73 | 0.65
x1 = 0.7012 | – | 0.64 | 0.57
x1 = 0.8028 | – | 0.57 | 0.51
x1 = 0.894 | – | 0.5 | 0.47
x1 = 0.9761 | – | 0.44 | 0.42

Reference: the CheMixHub viscosity set
